Measured values published in US20250302972A1, “FORMULATION” (ENA Respiratory Pty Ltd, priority 2021, published 2025).
Several values for one entry are separate records, joined by “and”; a condition that tells them apart may be missing. Equal entries are not always repeated.

What was measured:
[1] = target: T1, human TLR2 (Homo sapiens, UniProt O60603); assay: HEK-Blue hTLR2 Dose Response (NF-κB SEAP reporter); type: cell-based; details: for stimulatory (agonist) activity for hTLR2: HEK-Blue hTLR2
T1 construct: expressed in transfected cells; host or cells: HEK-Blue hTLR2
T1 sequence (O60603 21-784): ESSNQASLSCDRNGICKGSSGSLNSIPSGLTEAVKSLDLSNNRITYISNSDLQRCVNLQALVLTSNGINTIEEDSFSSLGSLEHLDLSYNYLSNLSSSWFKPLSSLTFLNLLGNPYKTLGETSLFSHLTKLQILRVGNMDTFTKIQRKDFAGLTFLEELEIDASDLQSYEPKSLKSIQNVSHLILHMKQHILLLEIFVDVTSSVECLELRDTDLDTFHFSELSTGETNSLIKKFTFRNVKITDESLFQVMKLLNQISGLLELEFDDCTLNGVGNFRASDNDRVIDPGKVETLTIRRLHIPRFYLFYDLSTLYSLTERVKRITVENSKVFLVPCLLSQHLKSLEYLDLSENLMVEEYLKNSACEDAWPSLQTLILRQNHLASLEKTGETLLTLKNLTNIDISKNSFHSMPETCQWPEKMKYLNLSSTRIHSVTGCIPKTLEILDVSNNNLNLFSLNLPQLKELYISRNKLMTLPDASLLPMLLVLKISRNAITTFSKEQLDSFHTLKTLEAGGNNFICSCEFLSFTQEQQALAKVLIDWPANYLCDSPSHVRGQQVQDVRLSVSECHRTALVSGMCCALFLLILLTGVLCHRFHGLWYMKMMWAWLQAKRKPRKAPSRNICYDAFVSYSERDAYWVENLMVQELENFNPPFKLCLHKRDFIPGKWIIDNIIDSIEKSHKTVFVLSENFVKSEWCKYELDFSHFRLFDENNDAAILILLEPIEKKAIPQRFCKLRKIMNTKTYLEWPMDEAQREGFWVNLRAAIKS
T1 sequence (Q9Y2C9 32-796 partner): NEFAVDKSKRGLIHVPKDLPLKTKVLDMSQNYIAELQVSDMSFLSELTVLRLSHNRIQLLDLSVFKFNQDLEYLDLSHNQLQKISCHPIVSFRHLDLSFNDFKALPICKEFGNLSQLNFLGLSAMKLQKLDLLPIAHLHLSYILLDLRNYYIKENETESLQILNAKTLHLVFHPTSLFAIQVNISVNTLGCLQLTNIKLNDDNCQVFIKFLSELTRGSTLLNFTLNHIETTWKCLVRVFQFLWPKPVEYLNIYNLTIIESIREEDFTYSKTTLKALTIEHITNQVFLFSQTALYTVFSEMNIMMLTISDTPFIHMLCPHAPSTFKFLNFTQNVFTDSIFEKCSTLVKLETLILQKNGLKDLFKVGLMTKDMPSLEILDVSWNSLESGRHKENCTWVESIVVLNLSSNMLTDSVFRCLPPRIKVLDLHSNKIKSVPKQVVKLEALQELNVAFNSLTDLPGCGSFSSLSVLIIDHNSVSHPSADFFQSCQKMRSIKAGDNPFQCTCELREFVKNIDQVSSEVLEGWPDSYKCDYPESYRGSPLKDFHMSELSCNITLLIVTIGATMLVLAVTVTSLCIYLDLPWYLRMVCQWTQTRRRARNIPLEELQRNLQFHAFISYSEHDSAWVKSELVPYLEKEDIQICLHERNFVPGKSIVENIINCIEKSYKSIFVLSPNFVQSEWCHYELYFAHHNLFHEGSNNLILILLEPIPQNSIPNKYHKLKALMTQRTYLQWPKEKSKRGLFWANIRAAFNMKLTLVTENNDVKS
Procedure: (§1) Toll-Like Receptor (TLR) stimulation is tested by assessing NF-κB activation in the TLR expressing cell lines. HEK-Blue h/mTLR2 cells have been stably transfected with human or mouse TLR2 and CD14. The activity of the test articles are tested on human and mouse TLR2, as potential agonists. The test articles are evaluated at seven concentrations and compared to control ligands (see list below). These steps are performed in triplicate.
[…] Starting from the 5 μg/mL working stock, a series of six 1:4 serial dilutions were made by mixing 100 μL of the previous highest dilution with 300 μL sterile PBS.
(§2) The secreted embryonic alkaline phosphatase (SEAP) reporter is under the control of a promoter inducible by the transcription factor NF-κB. This reporter gene allows the monitoring of signaling through the TLR, based on the activation of NF-κB. In a 96-well plate (200 μL total volume) containing the appropriate cells (50,000-75,000 cells/well), 20 μL of the test article or the positive control ligand (HKLC) is added to the wells. The media added to the wells is designed for the detection of NF-κB induced SEAP expression. After a 16-24-hour incubation the optical density (OD) is read at 650 nm on a Molecular Devices SpectraMax 340PC absorbance detector.

[2] = target: T2, mouse TLR2 (Mus musculus, UniProt Q9QUN7); assay: HEK-Blue mTLR2 Dose Response (NF-κB SEAP reporter); type: cell-based
T2 construct: expressed in transfected cells; host or cells: HEK-Blue mTLR2
T2 sequence (Q9QUN7 25-784): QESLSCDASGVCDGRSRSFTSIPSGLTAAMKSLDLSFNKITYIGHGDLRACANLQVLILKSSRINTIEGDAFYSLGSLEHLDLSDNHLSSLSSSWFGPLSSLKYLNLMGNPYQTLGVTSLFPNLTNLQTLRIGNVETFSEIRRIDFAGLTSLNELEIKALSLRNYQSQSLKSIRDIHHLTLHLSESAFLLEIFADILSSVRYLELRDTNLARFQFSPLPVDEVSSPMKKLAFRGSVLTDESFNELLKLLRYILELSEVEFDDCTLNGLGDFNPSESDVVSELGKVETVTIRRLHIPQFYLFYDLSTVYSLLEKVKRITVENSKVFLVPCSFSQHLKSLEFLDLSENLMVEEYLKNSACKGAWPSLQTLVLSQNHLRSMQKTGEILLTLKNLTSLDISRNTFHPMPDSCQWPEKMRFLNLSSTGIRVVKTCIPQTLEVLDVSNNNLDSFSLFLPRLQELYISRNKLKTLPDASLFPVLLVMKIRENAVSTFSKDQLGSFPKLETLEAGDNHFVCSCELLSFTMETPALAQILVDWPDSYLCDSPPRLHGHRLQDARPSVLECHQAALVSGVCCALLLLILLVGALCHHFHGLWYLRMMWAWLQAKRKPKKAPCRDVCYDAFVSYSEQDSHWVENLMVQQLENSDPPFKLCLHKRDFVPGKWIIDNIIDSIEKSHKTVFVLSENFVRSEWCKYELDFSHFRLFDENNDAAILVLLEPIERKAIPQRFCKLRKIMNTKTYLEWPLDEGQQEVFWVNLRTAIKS
T2 sequence (Q9Y2C9 32-796 partner): as the sequence (Q9Y2C9 32-796 partner) above
Procedure: as §1
A 5 μg/mL working stock was then prepared for each compound from the 20 μg/mL dilution in sterile PBS. Starting from the 5 μg/mL working stock, a series of six 1:4 serial dilutions were made by mixing 100 μL of the previous highest dilution with 300 μL sterile PBS.
as §2

[3] = system: HEK-Blue Null1 cells; assay: HEK-Blue Null1 control cell line (control for human TLR2); type: cell-based; details: TLR2-free control cells
Procedure: as §2

[4] = system: HEK-Blue Null2 cells; assay: HEK-Blue Null2 control cell line (control for mouse TLR2); type: cell-based; details: TLR2-free control cells
Procedure: as §2

[5] = target: T3, human TLR2 (hTLR2) (Homo sapiens, UniProt O60603); assay: Activation of human TLR2 II: HEK-BLUE-hTLR2 SEAP reporter assay; type: cell-based
T3 construct: host or cells: HEK293 (HEK-BLUE-hTLR2)
T3 sequence (O60603 21-784): as the sequence (O60603 21-784) above
T3 sequence (Q9Y2C9 32-796 partner): as the sequence (Q9Y2C9 32-796 partner) above

[6] = Stability IV: formulation pH at each time point; type: physicochemical
Procedure: Each compound was formulated in 0.9% w/w saline with addition of 0.1% w/w EDTA at about pH 5. The formulations were stored in the dark under accelerated conditions (40° C./75% RH) and reference formulations were stored at −80° C. At days 0, 9 and 28, samples were analysed by UHPLC and pH was measured.
The remaining ˜1 mL of solution in the clear glass HPLC vials was stored at 40° C./75% RH and was used to measure pH at each time point.
The formulation pH data recorded at each time point are compiled in Table 19. There was a general trend for the pH to increase with time but the effect was not pronounced.

Structure (SMILES) | optical density (650 nm), Average ([1]; 0.12 pg/mL) | optical density (650 nm), screenings 1-3 ([1]; 0.12 pg/mL) | optical density (650 nm), Average ([1]; 0.49 pg/mL) | optical density (650 nm), screenings 1-3 ([1]; 0.49 pg/mL) | optical density (650 nm), Average ([1]; 1.95 pg/mL) | optical density (650 nm), screenings 1-3 ([1]; 1.95 pg/mL) | optical density (650 nm), Average ([1]; 7.81 pg/mL) | optical density (650 nm), screenings 1-3 ([1]; 7.81 pg/mL) | optical density (650 nm), Average ([1]; 31.25 pg/mL) | optical density (650 nm), screenings 1-3 ([1]; 31.25 pg/mL) | optical density (650 nm), Average ([1]; 125 pg/mL) | optical density (650 nm), screenings 1-3 ([1]; 125 pg/mL) | optical density (650 nm), Average ([1]; 500 pg/mL) | optical density (650 nm), screenings 1-3 ([1]; 500 pg/mL) | stimulatory (agonist) activity for hTLR2 [1] | stimulatory (agonist) activity for mTLR2 [2] | stimulatory response in HEK-Blue Null1 (human) cells [3] | stimulatory response in HEK-Blue Null2 (mouse) cells [4] | also measured
CCCCCCCCCCCCCC[C@@H](C)C(=O)OCC[C@H](CSC[C@H](N)C(=O)N[C@@H](CO)C(=O)NCCOCCOCCOCCOCCOCCOCCOCCOCCOCCOCCOCCOCCOCCOCCOCCOCCOCCOCCOCCOCCOCCOCCOCCOCCOCCOCCOCCOCCC(=O)NCC(N)=O)OC(=O)[C@H](C)CCCCCCCCCCCCCC [B14] | 0.823 | 0.826 and 0.869 and 0.774 | 1.342 | 1.256 and 1.364 and 1.406 | 2.018 | 1.994 and 2.061 and 2.000 | 2.562 | 2.569 and 2.545 and 2.571 | 2.744 | 2.820 and 2.720 and 2.691 | 2.814 | 2.928 and 2.800 and 2.713 | 2.759 | 2.722 and 2.765 and 2.791 | possesses stimulatory activity | possesses stimulatory activity | not observed | not observed | Fold Induction ([1]; 500 pg/mL): 33.9
CCCCCCCCCCCCCCC(C)C(=O)OC[C@H](CSC[C@H](N)C(=O)N[C@@H](CO)C(=O)NCCOCCOCCOCCOCCOCCOCCOCCOCCOCCOCCOCCOCCOCCOCCOCCOCCOCCOCCOCCOCCOCCOCCOCCOCCOCCOCCOCCOCCC(=O)NCC(N)=O)OC(=O)C(C)CCCCCCCCCCCCCC (some centres unmarked) [B4] | 0.740 | 0.653 and 0.759 and 0.809 | 1.479 | 1.409 and 1.507 and 1.521 | 1.823 | 1.795 and 1.757 and 1.916 | 2.260 | 2.288 and 2.168 and 2.323 | 2.481 | 2.440 and 2.485 and 2.518 | 2.521 | 2.569 and 2.508 and 2.487 | 2.611 | 2.717 and 2.590 and 2.526 | possesses stimulatory activity | possesses stimulatory activity | not observed | not observed | optical density (650 nm), screenings 1-3 ([5]; 0.1 ng/mL): 0.182 and 0.206 and 0.197; optical density (650 nm), screenings 1-3 ([5]; 0.31 ng/mL): 0.126 and 0.115; optical density (650 nm), screenings 1-3 ([5]; 0.5 ng/mL): 0.719 and 0.594 and 0.617; optical density (650 nm), screenings 1-3 ([5]; 2.0 ng/mL): 1.660 and 1.529 and 1.498; optical density (650 nm), screenings 1-3 ([5]; 7.8 ng/mL): 2.214 and 2.163; optical density (650 nm), screenings 1-3 ([5]; 31.3 ng/mL): 2.438 and 2.327 and 2.350; optical density (650 nm), screenings 1-3 ([5]; 125 ng/mL): 2.451 and 2.411 and 2.467; formulation pH ([6]; 0-days): 5.6; formulation pH ([6]; 9-days, 40° C./75% RH): 5.7; formulation pH ([6]; 28-days, 40° C./75% RH): 5.7
